Patent US20250057826A1, “WEEKLY REGIMEN FOR HIV” (Gilead Sciences, Inc., priority 2023, published 2025)

Key:
[1] = pharmacokinetics following single-dose administration of oral LEN 50-1800 mg; format: in vivo; details: single-dose oral LEN 50-1800 mg
[2] = 2-compartment LEN population pharmacokinetic (PopPK) model from pooled clinical PK data (IV/oral/SC LEN); format: in vivo, human; details: column HTE
Text: PK data were pooled from several clinical studies in healthy participants and people with HIV-1 who received intravenous (IV)/oral/SC LEN and a 2-compartment LEN population pharmacokinetic (PopPK) model with first-order absorption and linear elimination was built to simulate various weekly dosing regimens (loading+maintenance doses) that can achieve efficacious LEN concentrations rapidly and be maintained through the dosing interval. Various scenarios including 1-3 weeks of missed oral dosing were simulated to evaluate the forgiveness window; these simulations were performed with the PopPK model incorporating variability and covariate effects. The model pharmacokinetic parameters for lenacapavir are provided in Table 1 where CL=clearance; Fpo=oral bioavailability; Fsc=SC bioavailability; GI=gastrointestinal; HTE=heavily treatment experienced; IIV=interindividual variability; Ka=absorption rate constant; Kdir=direct absorption rate constant; Ktr=transit absorption rate constant; PK=pharmacokinetic; Q=intercompartmental CL; Vc=volume of central compartment; Vp=volume of peripheral compartment.

[3] = test system: MT-4 cells; test: in vitro protein-adjusted 95% effective concentration derived from MT-4 cells (inhibitory quotient 4); format: cell-based; details: 4-fold greater than in vitro protein-adjusted 95% effective concentration from MT-4 cells
[4] = test system: HIV-1; test: virologic suppression in Phase 2/3 clinical studies; format: in vivo, human; details: at mean trough concentration of 15.5 ng/mL (IQ4)

CC(C)(C#Cc1ccc(-c2ccc(Cl)c3c(NS(C)(=O)=O)nn(CC(F)(F)F)c23)c([C@H](Cc2cc(F)cc(F)c2)NC(=O)Cn2nc(C(F)(F)F)c3c2C(F)(F)[C@@H]2C[C@H]32)n1)S(C)(=O)=O [lenacapavir, N—((S)-1-(3-(4-chloro-3-(methylsulfonamido)-1-(2,2,2-trifluoroethyl)-1H-indazol-7-yl)-6-(3-methyl-3-(methylsulfonyl)but-1-yn-1-yl)pyridin-2-yl)-2-(3,5-difluorophenyl)ethyl)-2-((3bS,4aR)-5,5-difluoro-3-(trifluoromethyl)-3b,4,4a,5-tetrahydro-1H-cyclopropa[3,4]cyclopenta[1,2-c]pyrazol-1-yl)acetamide]
half-life ([1]; human, plasma): 10 to 13 days | oral LEN exposure increase with dose [1]: less than dose proportionally | θ11: dose effect on Fpo ([2]; PopPK covariate effect): −0.414 | θ16: HV effect on Vp ([2]; PopPK covariate effect): 1.35 | θ19: pharmacoenhancer/booster effect on Fpo ([2]; PopPK covariate effect): 0.534 | θ20: SC 150 mg/mL effect on Vp ([2]; PopPK covariate effect): −0.795 | θ21: SC 150 mg/mL effect on Ktr ([2]; PopPK covariate effect): 0.433 | θ10: Fsc relative to IV ([2]; PopPK model parameter, SC bioavailability): 1.02 | θ6: SC Ktr ([2]; PopPK model parameter, SC): 0.00202 h⁻¹ | θ7: SC Kdir ([2]; PopPK model parameter, SC): 1.06e-06 s⁻¹ | θ8: SC fraction for direct absorption ([2]; PopPK model parameter, SC): 0.421 | θ2: Vc ([2]; PopPK model parameter): 67.9 L | θ4: Vp ([2]; PopPK model parameter): 908 L | θ5: Q ([2]; PopPK model parameter): 41.2 L/h | θ9: Fpo relative to IV ([2]; PopPK model parameter, oral bioavailability): 0.0627 | θ3: PO Ka ([2]; PopPK model parameter, oral): 0.0286 h⁻¹ | σ1: residual proportion variability ([2]; PopPK residual error): 27.3% CV | σ2: residual additive ([2]; PopPK residual error): 0.05 ng/mL | θ15: weight effect on Vc and Vp ([2]; fixed allometric exponent): 1 | clearance ([2]; human, plasma, other: pooled intravenous, oral and subcutaneous, PopPK model parameter, read-out: θ1: CL (converted)): 60.3 mL/min | ω11: IIV on CL ([2]; interindividual variability): 43.2 % CV | ω22: IIV on Vc ([2]; interindividual variability): 0% CV | ω33: IIV on Vp ([2]; interindividual variability): 85.4 % CV | ω44: IIV on Ktr ([2]; interindividual variability): 32.4 % CV | ω55: IIV on Ka ([2]; interindividual variability): 78.4 % CV | ω66: IIV on Kdir ([2]; interindividual variability): 0% CV | ω77: IIV on Fsc ([2]; interindividual variability): 38.9% CV | inhibitory quotient 4 (IQ4) mean trough concentration [3]: 15.5 ng/mL | virologic suppression [4]: high rates of virologic suppression
